“Also recorded” adds a separate entry of the source.
Tests used:
Type in all cases: physicochemical
[1] = Physical and chemical stability under 25° C./60% RH and 40° C./75% RH; conditions: for degradation and/or form change: 25° C./60% RH and 40° C./75% RH, one week; for Stability results (Open for 1 week) Form change: XRPD; for Initial Purity (area %): before storage
Method: Stability measurements were analyzed with a Waters H-Class ultra-performance liquid chromatography (UPLC) system using the conditions and parameters listed below.
Approximately 20 mg of a solid sample of each crystalline form was added to a HPLC vial (open dish) and then stored under 25° C./60% RH or 40° C./75% RH. After one week, the samples were removed from the test conditions and analyzed by HPLC and XRPD to assess chemical and physical stability, respectively.

[2] = Dynamic Vapor Sorption (DVS); conditions: for moisture uptake / hygroscopicity: 25° C./80% RH; for hygroscopicity: DVS
Method: Dynamic Vapor Sorption (DVS) analysis was conducted using a SMS (Surface Measurement Systems) DVS Intrinsic analyzer using the parameters listed below. [table]

[3] = Competitive slurry of Form A and Form C of Compound 1; conditions: 2 days
Excerpt: The obtained solids were isolated for XRPD analysis.

[4] = Form E exposed to ambient condition; conditions: 5 hours

Row | Compound | degradation and/or form change [1] | Stability results (Open for 1 week) Appearance ([1]; 25° C./60% RH) | Stability results (Open for 1 week) Purity (area %) ([1]; 25° C./60% RH) | Stability results (Open for 1 week) Form change ([1]; 25° C./60% RH) | Stability results (Open for 1 week) Appearance ([1]; 40° C./75% RH) | Stability results (Open for 1 week) Purity (area %) ([1]; 40° C./75% RH) | Stability results (Open for 1 week) Form change ([1]; 40° C./75% RH) | Initial Purity (area %) [1] | moisture uptake [2] | hygroscopicity [2] | hygroscopicity ([2]; listed as crystalline Form 1) | form change after DVS test ([2]; after DVS test) | XRPD Result ([3]; Acetone, water activity 0.0, room temperature) | XRPD Result ([3]; Acetone/H2O (605:395), water activity 0.8, room temperature) | XRPD Result ([3]; Acetone/H2O (858:142), water activity 0.6, room temperature) | XRPD Result ([3]; Acetone/H2O (950:50), water activity 0.4, room temperature) | XRPD Result ([3]; Acetone/H2O (986:14), water activity 0.2, room temperature) | XRPD Result ([3]; H2O, water activity 1.0, room temperature) | form transfer on exposure to ambient condition [4]
1 | CCCn1cc(-n2c(Cl)c(Sc3cccc(C(=O)O)c3F)c3ccc(Cl)c(F)c32)cn1 [Form 1 of Compound 1-A] | no significant degradation and/or form change | No | 99.73 area % | No | No | 99.73 area % | No | 99.79 area % | 0.32% | slightly hygroscopic | slightly hygroscopic; also recorded: non-hygroscopic |  |  |  |  |  |  |  | 
2 | CCCn1cc(-n2c(Cl)c(Sc3cccc(C(=O)O)c3F)c3ccc(Cl)c(F)c32)cn1 [Form 3 of Compound 1-B] | no significant degradation and/or form change | No | 99.72 area % | No | No | 99.73 area % | No | 99.77 area % | 0.1% | non-hygroscopic |  | No form change |  |  |  |  |  |  | 
3 | CCCn1cc(-n2c(Cl)c(Sc3cccc(C(=O)O)c3F)c3ccc(Cl)c(F)c32)cn1 [Form A + Form C] |  |  |  |  |  |  |  |  |  |  |  |  | Form C | Form A | Form A | Form C | Form C | Form A | 
4 | CCCn1cc(-n2c(Cl)c(Sc3cccc(C(=O)O)c3F)c3ccc(Cl)c(F)c32)cn1 [Form A] | no significant degradation and/or form change | No | 99.82 area % | No | No | 99.75 area % | No | 99.78 area % |  |  |  |  |  |  |  |  |  |  | 
5 | CCCn1cc(-n2c(Cl)c(Sc3cccc(C(=O)O)c3F)c3ccc(Cl)c(F)c32)cn1 [Form E] |  |  |  |  |  |  |  |  |  |  |  |  |  |  |  |  |  |  | transferred back to Form A; also recorded: Freeform Type E transferred to freeform Type A after

Reference: US20250282759A1, “POLYMORPHIC AND SALT FORMS OF THE AUTOTAXIN INHIBITOR CUDETAXESTAT” (Sabre Therapeutics LLC, priority 2022, published 2025)
